The compounds below were run against EGFR (Homo sapiens, UniProt P00533) (assay: Biochemical EGFR assay (ELISA, A431 cell lysate)). Details: read-out: bio EGFr IC50.
EGFR, sequence (P00533 25-1210): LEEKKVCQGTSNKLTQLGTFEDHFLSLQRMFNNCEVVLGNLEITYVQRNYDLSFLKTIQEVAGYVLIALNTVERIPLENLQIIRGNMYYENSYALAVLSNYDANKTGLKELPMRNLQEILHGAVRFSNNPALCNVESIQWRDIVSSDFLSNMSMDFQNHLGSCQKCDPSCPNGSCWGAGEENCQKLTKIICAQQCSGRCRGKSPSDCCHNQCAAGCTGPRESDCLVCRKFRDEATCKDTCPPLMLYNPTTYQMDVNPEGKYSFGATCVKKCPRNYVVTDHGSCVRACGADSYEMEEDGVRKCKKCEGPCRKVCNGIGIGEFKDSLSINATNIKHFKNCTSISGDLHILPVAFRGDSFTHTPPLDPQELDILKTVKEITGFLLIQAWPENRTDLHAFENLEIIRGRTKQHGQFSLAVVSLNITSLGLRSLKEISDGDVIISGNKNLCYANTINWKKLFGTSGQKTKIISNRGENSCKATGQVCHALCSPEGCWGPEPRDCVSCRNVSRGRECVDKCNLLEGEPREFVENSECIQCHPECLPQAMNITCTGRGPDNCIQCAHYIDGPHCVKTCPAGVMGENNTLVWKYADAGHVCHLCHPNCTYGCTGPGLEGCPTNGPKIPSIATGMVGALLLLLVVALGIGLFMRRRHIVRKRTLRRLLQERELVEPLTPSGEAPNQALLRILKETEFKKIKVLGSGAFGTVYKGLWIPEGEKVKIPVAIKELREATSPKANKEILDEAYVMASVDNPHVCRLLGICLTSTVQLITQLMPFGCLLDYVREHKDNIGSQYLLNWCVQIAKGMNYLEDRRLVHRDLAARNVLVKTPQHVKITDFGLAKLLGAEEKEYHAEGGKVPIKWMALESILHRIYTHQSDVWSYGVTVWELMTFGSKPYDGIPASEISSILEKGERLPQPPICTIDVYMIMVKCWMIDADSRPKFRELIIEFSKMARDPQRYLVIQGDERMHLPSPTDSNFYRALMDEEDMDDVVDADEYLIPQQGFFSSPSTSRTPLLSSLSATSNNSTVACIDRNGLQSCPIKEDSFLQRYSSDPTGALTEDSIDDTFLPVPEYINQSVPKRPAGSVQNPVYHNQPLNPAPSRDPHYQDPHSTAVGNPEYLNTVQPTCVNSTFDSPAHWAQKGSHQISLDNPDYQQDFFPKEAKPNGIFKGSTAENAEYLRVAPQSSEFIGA
Design: A431 cell lysate (Screening Lab, SUGEN, Inc.); host or cells: A431
Outline: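 EGFR captured from A431 cell lysate onto anti-EGFR-coated plates, then incubated with test compound for 30 min at room temperature. Tyrosine phosphorylation with ATP/MnCl2 was stopped with EDTA after 5 min and detected by anti-phosphotyrosine ELISA with peroxidase/ABTS read-out.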
`COc1ccc(C=C2C(=O)Nc3cc(NC(C)=O)ccc32)cc1-c1cccc(NC(C)=O)c1` (mixture of isomers) [Example 63, N-[3-(3′-Acetylamino-6-methoxybiphenyl-3-ylmethylene)-2-oxo-2,3-dihydro-1H-indol-6-yl]-acetamide] gave an IC50 of over 100 µM.
With `CC1(C)CCc2cc(C=C3C(=O)Nc4ccc(Br)cc43)ccc2O1` (racemic) [Example 34, 5-Bromo-3-(2,2-dimethylchroman-6-ylmethylene)-1,3-dihydroindol-2-one] the IC50 was over 100 µM.
For `CNS(=O)(=O)c1ccc2c(c1)C(=Cc1[nH]c3ccccc3c1C)C(=O)N2` (racemic) [Example 154, 3-(3-Methyl-1H-indol-2-ylmethylene)-2-oxo-2,3-dihydro-1H-indole-5-sulfonic acid methylamide], the IC50 was over 100 µM.
For `COc1c(C(C)C)cc(/C=C2/C(=O)Nc3cc(O)ccc32)cc1C(C)C` [Example 4, 3-(3,5-Diisopropyl-4-methoxybenzylidene)-6-hydroxy-1,3-dihydroindol-2-one], the IC50 was over 100 µM.
Work on `COc1c(C(C)C)cc(/C=C2/C(=O)Nc3ccc(C(C)=O)cc32)cc1C(C)C` [Example 5, 5-Acetyl-3-(3,5-diisopropyl-4-methoxybenzylidene)-1,3dihydroindol-2-one] yielded an IC50 of over 100 µM.
`COC(=O)c1ccc2c(c1)/C(=C\c1cc(C(C)C)c(OC)c(C(C)C)c1)C(=O)N2` [Example 6, 3-(3,5-Diisopropyl-4-methoxybenzylidene)-2-oxo-2,3-dihydro-1H-indole-5-carboxylic acid methyl ester] was tested, and the IC50 was over 100 µM.
With `COc1ccc(/C=C2/C(=O)Nc3ccccc32)cc1C(C)C` [Example 7, 3-(3-Isopropyl-4-methoxybenzylidene)-1,3-dihydroindol-2-one] the IC50 was over 100 µM.
Work on `COc1cc(C)c(C=C2C(=O)Nc3ccccc32)cc1C(C)C` [Example 8, 3-(5-Isopropyl-4-methoxy-2-methylbenzylidene)-1,3-dihydroindol-2-one] yielded an IC50 of over 100 µM.
Work on `COc1cc(C)c(C=C2C(=O)Nc3ccc(Cl)cc32)cc1C(C)C` [Example 9, 5-Chloro-3-(5-isopropyl-4-methoxy-2-methylbenzylidene)-1,3-dihydroindol-2-one] yielded an IC50 of over 100 µM.
`COc1ccc(/C=C2/C(=O)Nc3ccccc32)cc1C1CCCC1` [Example 10, 3-(3-Cyclopentyl-4-methoxybenzylidene)-1,3-dihydroindol-2-one] showed an IC50 of over 100 µM.
Compound `COc1ccc(/C=C2/C(=O)Nc3ccc(F)cc32)cc1C1CCCC1` [Example 11, 3-(3-Cyclopentyl-4-methoxybenzylidene)-5-fluoro-1,3-dihydroindol-2-one] has an IC50 of over 100 µM.
`COc1ccc(/C=C2/C(=O)Nc3ccccc32)cc1C1CCCCC1` [Example 12, 3-(3-Cyclohexyl-4-methoxybenzylidene)-1,3-dihydroindol-2-one] gave an IC50 of over 100 µM.
With `COc1ccc(/C=C2/C(=O)Nc3ccc(Br)cc32)cc1-c1ccccc1` [Example 13, 5-Bromo-3-(6-methoxybiphenyl-3-ylmethylene)-1,3-dihydroindol-2-one] the IC50 was over 100 µM.
`O=C1Nc2ccc(Cl)cc2/C1=C\c1ccc2c(c1)CCO2` [Example 14, 5-Chloro-3-(2,3-dihydro-benzofuran-5-ylmethylene)-1,3-dihydroindol-2-one] showed an IC50 of over 100 µM.
With `CC1(C)CCc2cc(/C=C3/C(=O)Nc4ccc(Cl)cc43)ccc2O1` [Example 15, 5-Chloro-3-(2,2-dimethyl-chroman-6-ylmethylene)-1,3-dihydroindol-2-one] the IC50 was over 100 µM.
`CC(=O)Nc1ccc2c(c1)NC(=O)/C2=C/c1ccc(OCCN2CCOCC2)c(C2CCCCC2)c1` [Example 16, N-{3-[3-Cyclohexyl-4-(2-morpholin-4-ylethoxy)-benzylidene]-2-oxo-2,3-dihydro-1H-indol-6-yl}-acetamide] gave an IC50 of over 100 µM.
Compound `COc1ccc2c(c1)/C(=C\c1cc(C(C)C)c(OC)c(C(C)C)c1)C(=O)N2` [Example 17, 3-(3,5-Diisopropyl-4-methoxybenzylidene)-5-methoxy-1,3-dihydroindol-2-one] has an IC50 of over 100 µM.
With `COc1ccc(/C=C2/C(=O)Nc3cc(NC(C)=O)ccc32)cc1-c1ccsc1` [Example 18, N-[3-(4-Methoxy-3-thiophene-3-ylbenzylidene)-2-oxo-2,3-dihydro-1H-indol-6-yl]-acetamide] the IC50 was over 100 µM.
Work on `COc1c(C(C)C)cc(/C=C2/C(=O)Nc3ccc(C)cc32)cc1C(C)C` [Example 19, 3-(3,5-Diisopropyl-4-methoxybenzylidene)-5-methyl-1,3-dihydroindol-2-one] yielded an IC50 of over 100 µM.
`COc1c(C(C)C)cc(/C=C2/C(=O)Nc3ccc(N)cc32)cc1C(C)C` [Example 20, 5-Amino-3-(3,5-diisopropyl-4-methoxy-benzylidene)-1,3-dihydroindol-2-one] gave an IC50 of over 100 µM.
Work on `COc1c(C)cc(/C=C2/C(=O)Nc3ccc(Cl)cc32)cc1C` [Example 21, 5-Chloro-3-(4-methoxy-3,5-dimethylbenzylidene)-1,3-dihydroindol-2-one] yielded an IC50 of over 100 µM.
Work on `COc1c(C(C)C)cc(/C=C2/C(=O)Nc3cc(F)ccc32)cc1C(C)C` [Example 22, 3-(3,5-Diisopropyl-4-methoxybenzylidene)-6-fluoro-1,3-dihydroindol-2-one] yielded an IC50 of over 100 µM.
Compound `CC1(C)CCc2cc(/C=C3/C(=O)Nc4ccc(F)cc43)ccc2O1` [Example 23, 3-(2,2-Dimethylchroman-6-ylmethylene)-5-fluoro-1,3-dihydroindol-2-one] has an IC50 of over 100 µM.
`CC(C)c1cc(/C=C2/C(=O)Nc3ccc(Cl)cc32)cc(C(C)C)c1OCCN1CCOCC1` [Example 24, 5-chloro-3-[3,5-diisopropyl-4-(2-morpholin-4-ylethoxy)-benzylidene]-1,3-dihydroindol-2-one] was tested, and the IC50 was over 100 µM.
Work on `COc1ccc(/C=C2/C(=O)Nc3ccc(CCN4CCOCC4)cc32)cc1-c1ccsc1` [Example 26, 3-(4-Methoxy-3-thiophen-3-ylbenzylidene)-5-(2-morpholin-4-yl-ethyl)-1,3-dihydroindol-2-one] yielded an IC50 of over 100 µM.
Compound `COc1cc(C)c(C=C2C(=O)Nc3cc(NC(C)=O)ccc32)cc1C(C)C` [Example 27, N-[3-(5-Isopropyl-4-methoxy-2-methyl-benzylidene)-2-oxo-2,3-dihydro-1H-indol-6-yl]-acetamide] has an IC50 of over 100 µM.
In the case of `CCc1ccc2c(c1)/C(=C\c1cc(C(C)C)c(OC)c(C(C)C)c1)C(=O)N2` [Example 28, 3-(3,5-Diisopropyl-4-methoxbenzylidene)-5-ethyl-1,3-dihydroindol-2-one], the IC50 is reported as over 100 µM.
`COc1ccc(C=C2C(=O)Nc3ccccc32)cc1-c1cccc(NC(C)=O)c1` [Example 29, N-[2′-Methoxy-5′-(2-oxo-1,2-dihydroindol-3-ylidenemethyl)-biphenyl-3-yl]-acetamide] gave an IC50 of over 100 µM.
Work on `COc1cc(C)c(/C=C2/C(=O)Nc3ccc(F)cc32)cc1C(C)C` [Example 30, 5-Fluoro-3-(5-isopropyl-4-methoxy-2-methyl-benzylidene)-1,3-dihydroindol-2-one] yielded an IC50 of over 100 µM.
Work on `COc1ccc(/C=C2/C(=O)Nc3cc(NC(C)=O)ccc32)cc1-c1cccs1` [Example 31, N-[3-(4-Methoxy-3-thiophen-2-ylbenzylidene)-2-oxo-2,3-dihydro-1H-indol-6-yl]-acetamide] yielded an IC50 of over 100 µM.
Compound `COc1c(C(C)C)cc(/C=C2/C(=O)Nc3cc(N)ccc32)cc1C(C)C` [Example 32, 6-Amino-3-(3,5-diisoprotyl-4-methoxy-benzylidene)-1,3-dihydroindol-2-one] has an IC50 of over 100 µM.
`CC(=O)Nc1ccc2c(c1)NC(=O)/C2=C\c1ccc2c(c1)CCC(C)(C)O2` [Example 33, N-[3-(2,2-Dimethylchroman-6-ylmethylene)-2-oxo-2,3-dihydro-1H-indol-6-yl]-acetamide] showed an IC50 of over 100 µM.
With `COc1ccc(/C=C2/C(=O)Nc3ccccc32)cc1-c1ccsc1` [Example 35, 3-(4-Methoxy-3-thiophen-3-ylbenzylidene)-1,3-dihydroindol-2-one] the IC50 was over 100 µM.
In the case of `COc1cc(C)c(/C=C2/C(=O)Nc3ccc(Br)cc32)cc1C(C)C` [Example 36, 5-Bromo-3-(5-isopropyl-4-methoxy-2-methyl-benzylidene)-1,3-dihydroindol-2-one], the IC50 is reported as over 100 µM.
`COc1ccc(/C=C2/C(=O)Nc3ccc(F)cc32)cc1-c1ccccc1` [Example 37, 5-Fluoro-3-(6-methoxybiphenyl-3-ylmethylene)-1,3-dihydroindol-2-one] gave an IC50 of over 100 µM.
For `COc1ccc(/C=C2\C(=O)Nc3cccc(C)c32)cc1C(C)C` [Example 38, 3-(3-Isopropyl-4-methoxybenzylidene)-4-methyl-1,3-dihydroindol-2-one], the IC50 was over 100 µM.
With `COc1cc(/C=C2/C(=O)Nc3ccccc32)c(-c2cccs2)cc1OC` [Example 39, 3-(4,5-Dimethoxy-2-thiophen-2-ylbenzylidene)-1,3-dihydroindol-2-one] the IC50 was over 100 µM.
`CC(=O)Nc1ccc2c(c1)NC(=O)/C2=C/c1ccc(OCCN2CCOCC2)c(-c2cccs2)c1` [Example 40, N-{3-[4-(2-Morpholin-4-ylethoxy)-3-thiophen-2-ylbenzylidene]-2-oxo-2,3-dihydro-1H-indol-6-yl}-acetamide] showed an IC50 of over 100 µM.
Compound `Cc1cccc2c1/C(=C/c1ccc3c(c1)CCC(C)(C)O3)C(=O)N2` [Example 41, 3-(2,2-Dimethylchroman-6-ylmethylene)-4-methyl-1,3-dihydroindol-2-one] has an IC50 of over 100 µM.
With `O=C1Nc2ccc(F)cc2/C1=C\c1ccc2c(c1)CCO2` [Example 42, 3-(2,3-Dihydrobenzofuran-5-ylmethylene)-5-fluoro-1,3-dihydroindol-2-one] the IC50 was over 100 µM.
`COc1ccc(/C=C2/C(=O)Nc3ccc(F)cc32)cc1C1CCCCC1` [Example 43, 3-(3-Cyclohexyl-4-methoxybenzylidene)-5-fluoro-1,3-dihydroindol-2-one] was tested, and the IC50 was over 100 µM.
`COc1ccc(/C=C2/C(=O)Nc3ccc(F)cc32)cc1C(C)C` [Example 44, 5-Fluoro-3-(3-isopropyl-4-methoxybenzylidene)-1,3-dihydroindol-2-one] showed an IC50 of over 100 µM.

Source: patent publication US6855730B2, “3-methylidenyl-2-indolinone modulators of protein kinase” (Sugen, Inc., priority 1998, dated 2005)
